According to US5935973A, “Heterocyclcarboxamide derivatives and their use as therapeutic agents” (Knoll Aktiengesellschaft, priority 1995, dated 1999):

Tests used:
α2D-adrenoceptors = target: T1, α2D-adrenoceptors (Rattus norvegicus, UniProt P22909); assay: inhibition of tritiated idazoxan binding to α2D-adrenoceptors in rat frontal cortical tissue; details: rat frontal cortex; for inhibition at 1 µM: at 10^-6 M, tritiated idazoxan, read-out: % displacement of radio ligand, α2D; for Ki: tritiated idazoxan 1 nM, 0° C., 75 min
T1 construct: Frontal cortical tissue from the brains of male Charles River CD rats; from tissue; host or cells: rat frontal cortex membranes
T1 sequence (P22909 1-465): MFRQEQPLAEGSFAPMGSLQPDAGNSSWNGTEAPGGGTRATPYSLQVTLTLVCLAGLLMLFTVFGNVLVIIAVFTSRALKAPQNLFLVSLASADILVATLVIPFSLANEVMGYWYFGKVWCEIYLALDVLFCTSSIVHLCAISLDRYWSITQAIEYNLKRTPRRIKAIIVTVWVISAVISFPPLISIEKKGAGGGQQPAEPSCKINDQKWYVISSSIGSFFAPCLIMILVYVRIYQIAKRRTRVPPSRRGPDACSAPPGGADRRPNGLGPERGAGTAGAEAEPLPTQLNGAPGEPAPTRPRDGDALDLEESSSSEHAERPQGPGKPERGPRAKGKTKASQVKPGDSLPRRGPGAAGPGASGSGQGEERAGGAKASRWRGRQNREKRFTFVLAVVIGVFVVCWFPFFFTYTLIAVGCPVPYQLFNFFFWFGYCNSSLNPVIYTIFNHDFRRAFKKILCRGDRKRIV
Method: Frontal cortical tissue from the brains of male Charles River CD rats weighing between 150-250 g were homogenised in ice-cold 0.25 M sucrose (1:30 w/v) and centrifuged at 1,000 g at 4° C. for 12 minutes. The supernatant was stored on ice and the pellet was rehomogenised in 0.25 M sucrose (1:15 w/v) and centrifuged at 850 g at 4° C. for 12 minutes. Combined supernatants were diluted with 5 mM Tris-HCl (pH 7.5) containing 5 mM ethylenediamine tetraacetic acid (EDTA) readjusted to pH 7.5 (at 25° C.) with 1 M sodium hydroxide to 1:80 w/v, and centrifuged at 30,000 g at 4° C. for 10 minutes. The resulting pellet was resuspended in 50 mM Tris-HCl (pH 7.5) containing 5.68 mM L-ascorbic acid and 0.5 mM EDTA readjusted to pH 7.5 (at 25° C.) with 1 M sodium hydroxide, and centrifuged at 30,000 g for 10 minutes. The final pellet was resuspended in 50 mM Tris-HCl (pH 7.5) containing 5.68 mM L-ascorbic acid and 5 mM EDTA (equivalent to 12.5 mg wet weight of tissue/ml) and used immediately in the binding assay. Aliquots (400 μl; equivalent to 5 mg wet weight of tissue/tube) of this suspension were added to tubes containing the ligand (50 μl; 1 nM) and distilled water (50 μl; total binding) or phentolamine (50 μl; 5 μM; non-specificbinding) or test compound (50 μl; at a single concentration of 10^-6 M or at 10 concentrations ranging from 10^-11 -10^-3 M). The ligand was tritiated idazoxan ((1,4-[6,7(n)-^3 H]benzodioxan-2-yl)-2-imidazoline hydrochloride) and the mixture was incubated at 0° C. for 75 minutes before the incubation was terminated by rapid filtration.
The filters were washed with ice-cold Tris-HCl buffer and dried. The filters were punched out into vials, scintillation fluid added and radioactivity determined by liquid scintillation counting. […] Displacement curves were then produced for those compounds which displaced ≥50% of specific binding of the tritiated ligand at 10^-6 M using a range of concentrations of the compound. The concentration which gave 50% inhibition of specific binding (IC50) was obtained from the curve. The inhibition coefficient Ki was then calculated using the formula [formula] in which [ligand] is the concentration of the tritiated ligand used and KD is the equilibrium dissociation constant for the ligand.

D2 dopamine receptors = target: T2, D2 dopamine receptors (Rattus norvegicus, UniProt P61169); assay: inhibition of tritiated (S)-sulpiride binding to D2 dopamine receptors in rat striatal tissue; details: rat striatum; for Ki: tritiated (S)-sulpiride 1 nM, 4° C., 40 min; for inhibition at 1 µM: at 10^-6 M, tritiated (S)-sulpiride, read-out: % displacement of radio ligand, D2
T2 construct: Striatal tissue from the brains of male Charles River CD rats; from tissue; host or cells: rat striatum membranes
T2 sequence (P61169 whole entry): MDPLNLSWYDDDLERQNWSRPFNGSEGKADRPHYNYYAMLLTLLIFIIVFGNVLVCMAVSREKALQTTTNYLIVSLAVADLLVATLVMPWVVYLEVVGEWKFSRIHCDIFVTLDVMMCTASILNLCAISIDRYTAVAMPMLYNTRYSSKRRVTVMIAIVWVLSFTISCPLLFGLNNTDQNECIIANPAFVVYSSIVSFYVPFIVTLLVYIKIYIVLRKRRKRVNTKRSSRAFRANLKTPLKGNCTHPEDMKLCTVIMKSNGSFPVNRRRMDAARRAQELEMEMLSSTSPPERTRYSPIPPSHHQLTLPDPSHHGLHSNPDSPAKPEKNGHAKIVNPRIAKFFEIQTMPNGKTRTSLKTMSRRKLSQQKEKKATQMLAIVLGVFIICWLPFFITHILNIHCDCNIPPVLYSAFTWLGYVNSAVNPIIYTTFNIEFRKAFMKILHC
Method: Striatal tissue from the brains of male Charles River CD rats weighing between 140-250 g were homogenised in ice-cold 50 mM Tris-HCl buffer (pH 7.7 when measured at 25° C.) and centrifuged at 40,000 g for 10 minutes. The pellet was resuspended in Tris salts buffer (50 mM Tris-HCl buffer containing 120 mM NaCl, 5 mM KCl, 2 mM CaCl2 and 1 mM MgCl2 with the addition of 6 mM ascorbic acid; pH 7.7 when measured at 25° C.), and again centrifuged at 40,000 g for 10 minutes. The final pellet was stored at -80° C. Before each test the pellet was resuspended in Tris salts buffer (equivalent to 2 mg wet weight of tissue/ml). Aliquots (720 μl; equivalent to 1.44 mg wet weight of tissue/tube) of this suspension were then added to tubes containing the ligand (40 μl; 1 nM) and Tris salts buffer (40 μl; total binding) or spiroperidol (40 μl; 10 nM; non-specific binding) or test compound (40 μl; at a single concentration of 10^-6 M or at 6 concentrations ranging from 10^-11 -10^-4 M). The ligand was tritiated (S)-sulpiride and the mixture was incubated at 4° C. for 40 minutes before the incubation was terminated by rapid filtration.
The filters were washed with ice-cold Tris-HCl buffer and dried. The filters were punched out in to vials, scintillation fluid added and were left for about 20 hours before being counted by scintillation spectrophotometry. The percentage displacement of specific binding of the tritiated ligand was calculated for the single concentration (10^-6 M) of test compound. Displacement curves were then produced over a range of concentrations for those compounds which displaced ≥50% of specific binding of the tritiated ligand at 10^-6 M. The concentration which gave a 50% inhibition of specific binding (IC50) was obtained from the curve. The inhibition coefficient Ki was then calculated using the formula [formula] in [ligand] is the concentration of the tritiated ligand used and KD is the 2 equilibrium dissociation constant for the ligand.

| Structure (SMILES) | inhibition at 1 µM (α2D-adrenoceptors) [%] | Ki (D2 dopamine receptors) [nM] | inhibition at 1 µM (D2 dopamine receptors) [%] | Ki (α2D-adrenoceptors) [nM] |
| --- | --- | --- | --- | --- |
| Nc1ncccc1C(=O)NCC1CCN(C[C@H]2COc3ccc(Cl)cc3O2)CC1 [Example 1, (S)-(-)-2-amino-N-{[1-(7-chloro-1,4-benzodioxan-2-ylmethyl)-4-piperidyl]methyl}pyridine-3-carboxamide] | 97 | 32.2 | – | – |
| Nc1ncccc1C(=O)NCC1CCN(C[C@H]2COc3cccc(Cl)c3O2)CC1 [Example 2, (S)-2-amino-N-{[1-(8-chloro-1,4-benzodioxan-2-ylmethyl)-4-piperidyl]methyl}-pyridine-3-carboxamide] | 98 | – | 104 | – |
| Nc1ncccc1C(=O)NCC1CCN(C[C@H]2COc3cccc(F)c3O2)CC1 [Example 3, (S)-(-)-2-amino-N-{[1-(8-fluoro-1,4-benzodioxan-2-ylmethyl)-4-piperidyl]methyl}pyridine-3-carboxamide] | 99 | 32.9 | – | – |
| Nc1ncccc1C(=O)NCC1CCN(CC2COc3ccccc3O2)CC1 (stereo not drawn) [Example 4, 2-amino-N-{[1-(1,4-benzodioxan-2-ylmethyl)-4-piperidyl]methyl}pyridine-3-carboxamide] | 98 | – | 84 | – |
| Cc1ccc2c(c1)O[C@@H](CN1CCC(CNC(=O)c3cccnc3N)CC1)CO2 [Example 5, (S)-2-amino-N-{[1-(7-methyl-1,4-benzodioxan-2-ylmethyl)-4-piperidyl]methyl}pyridine-3-carboxamide] | 96 | 55.6 | – | – |
| O=C(NCC1CCN(CC2COc3ccccc3O2)CC1)c1ccccn1 (stereo not drawn) [Example 6, N-{[1-(1,4-benzodioxan-2-ylmethyl)-4-piperidyl]methyl}pyridine-2-carboxamide] | – | 67 | – | 4.4 |
| COc1ccc2c(c1)O[C@@H](CN1CCC(CNC(=O)c3cccnc3N)CC1)CO2 [Example 7, (S)-2-amino-N{[1-(7-methoxy-1,4-benzodioxan-2-ylmethyl)-4-piperidyl]methyl}-pyridine-3-carboxamide] | – | 197 | – | 3.6 |
| O=C(NCC1CCN(CC2COc3ccccc3O2)CC1)c1cccc2cccnc12 (stereo not drawn) [Example 8, N-{[1-(1,4-benzodioxan-2-ylmethyl)-4-piperidyl]methyl}quinoline-8-carboxamide] | 100 | 95 | – | – |
| Cc1ncccc1C(=O)NCC1CCN(C[C@H]2COc3cccc(Cl)c3O2)CC1 [Example 9, (S)-N-{[1-(8-chloro-1,4-benzodioxan-2-ylmethyl)-4-piperidyl]methyl}-2-methylpyridine-3-carboxamide] | 97 | 37 | – | – |
| Nc1ncccc1C(=O)NCC1CCN(CC2COc3ccc(F)cc3O2)CC1 (stereo not drawn) [Example 10, 2-amino-N-{[1-(7-fluoro-1,4-benzodioxan-2-ylmethyl)-4-piperidyl]methyl}pyridine-3-carboxamide] | – | 109 | – | 6.4 |
| COc1cccc2c1OC(CN1CCC(CNC(=O)c3cccnc3N)CC1)CO2 (stereo not drawn) [Example 11, 2-amino-N-{[1-(8-methoxy-1,4-benzodioxan-2-ylmethyl)-4-piperidyl]methyl}pyridine-3-carboxamide] | 98 | 41 | – | – |
| O=C(NCC1CCN(C[C@H]2COc3ccc(Cl)cc3O2)CC1)c1ccccn1 [Example 12, (S)-N-{[1-(7-chloro-1,4-benzodioxan-2-ylmethyl)-4-piperidyl]methyl}pyridine-2-carboxamide] | 95 | 21 | – | – |
| Cc1cccc2c1O[C@@H](CN1CCC(CNC(=O)c3cccnc3N)CC1)CO2 [Example 13, (S)-2-amino-N-{[1-(8-methyl-1,4-benzodioxan-2-ylmethyl)-4-piperidyl]methyl}pyridine-3-carboxamide] | 99 | 33 | – | – |
| Cc1ccc(C(=O)NCC2CCN(C[C@H]3COc4ccc(Cl)cc4O3)CC2)c(N)n1 [Example 14, (S)-2-amino-N-{[1-(7-chloro-1,4-benzodioxan-2-ylmethyl)-4-piperidyl]methyl}-6-methylpyridine-3-carboxamide] | 97 | 43.9 | – | – |
| Nc1ncccc1C(=O)NCC1CCN(C[C@H]2COc3ccccc3O2)CC1 [Example 15, (S)-2-amino-N-{[1-(1,4-benzodioxan-2-ylmethyl)-4-piperidyl]methyl}pyridine-3-carboxamide] | 99 | 64.6 | – | – |
| Nc1ccsc1C(=O)NCC1CCN(CC2COc3ccccc3O2)CC1 (stereo not drawn) [Example 16, 3-amino-N-{[1-(1,4-benzodioxan-2-ylmethyl)-4-piperidyl]methyl}thiophene-2-carboxamide] | 99 | 68 | – | – |
| Nc1ccsc1C(=O)NCC1CCN(C[C@H]2COc3ccc(Cl)cc3O2)CC1 [Example 17, (S)-3-amino-N-{[1-(7-chloro-1,4-benzodioxan-2-ylmethyl)-4-piperidyl]methyl}thiophene-2-carboxamide] | – | 36 | – | 27 |
| Cc1ncccc1C(=O)NCC1CCN(C[C@H]2COc3ccc(Cl)cc3O2)CC1 [Example 18, (S)-N-{[1-(7-chloro-1,4-benzodioxan-2-ylmethyl)-4-piperidyl]methyl}-2-methylpyridine-3-carboxamide] | 89 | 110 | – | – |
| Nc1ncccc1C(=O)NCC1CCN(C[C@H]2COc3cccc(C(F)(F)F)c3O2)CC1 [Example 20, (S)-2-amino-N-{[1-(8-trifluoromethyl-1,4-benzodioxan-2-ylmethyl)-4-piperidyl]methyl}pyridine-3-carboxamide] | 98 | 12 | – | – |
| O=C(NCC1CCN(C[C@H]2COc3ccc(Cl)cc3O2)CC1)c1cccnc1 [Example 22, (S)-N-{[1-(7-chloro-1,4-benzodioxan-2-ylmethyl)-4-piperidyl]methyl}pyridine-3-carboxamide] | 99 | 15 | – | – |
| O=C(NCC1CCN(C[C@H]2COc3ccc(Cl)cc3O2)CC1)c1cccc2cccnc12 [Example 23, (S)-N-{[1-(7-chloro-1,4-benzodioxan-2-ylmethyl)-4-piperidyl]methyl}quinoline-8-carboxamide] | 95 | 80 | – | – |
